# Measurements from ChEMBL document CHEMBL1125536, “Studies on neurokinin antagonists. 2. Design and structure-activity relationships of novel tripeptide substance P antagonists, N alpha-[N alpha-(N alpha-acetyl-L-threonyl)-N1-formyl-D-tryptophyl]-N- methyl-N-(phenylmethyl)-L-phenylalaninamide and its related compounds” (J Med Chem, 1992).
# Square brackets hold non-standard residues; d marks the D form. Peptide text beside a SMILES is read from it. * marks the point of attachment. Boc = CC(C)(C)OC(=O)*; OBn = c1ccc(CO*)cc1; For = O=C*
# Biological target: Substance-P receptor (Cavia porcellus, UniProt P30547)
# Assay: Compound was tested for the inhibition of [3H]SP binding to guinea pig lung membranes; Not active; call rule not given here
# Sequence of Substance-P receptor (P30547 whole entry): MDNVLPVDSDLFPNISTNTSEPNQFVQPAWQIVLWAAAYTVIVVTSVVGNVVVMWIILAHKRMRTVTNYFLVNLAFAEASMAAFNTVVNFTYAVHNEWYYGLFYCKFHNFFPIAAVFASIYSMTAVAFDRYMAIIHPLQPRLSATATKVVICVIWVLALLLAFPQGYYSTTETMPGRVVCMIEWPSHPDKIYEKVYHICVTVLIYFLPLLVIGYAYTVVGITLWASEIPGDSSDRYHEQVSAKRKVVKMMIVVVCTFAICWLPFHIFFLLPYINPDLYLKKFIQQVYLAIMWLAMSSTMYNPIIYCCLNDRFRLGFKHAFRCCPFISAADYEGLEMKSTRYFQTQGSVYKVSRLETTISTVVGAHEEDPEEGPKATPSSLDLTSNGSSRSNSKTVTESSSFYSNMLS
row,IC50,Compound
1,Not Active,CC(O)C(NC(=O)CCCC(=O)O)C(=O)N[C@H](Cc1cn(C=O)c2ccccc12)C(=O)N[C@@H](Cc1ccccc1)C(=O)N(C)Cc1ccccc1 (stereo partly drawn)
2,Not Active,CC(O)C(NC(=O)CCC(=O)O)C(=O)N[C@H](Cc1cn(C=O)c2ccccc12)C(=O)N[C@@H](Cc1ccccc1)C(=O)N(C)Cc1ccccc1 (stereo partly drawn)

# Biological target: not listed separately
# Assay: Inhibition of [3H]SP binding to guinea pig lung membranes
row,IC50 [nM],Compound
1,290,CC(O)C(C(=O)N[C@H](Cc1cn(C=O)c2ccccc12)C(=O)N[C@@H](Cc1ccccc1)C(=O)N(C)Cc1ccccc1)N(C)C(=O)OC(C)(C)C (stereo partly drawn)
2,30,CC(=O)NC(CCC(=O)N(C)C)C(=O)N[C@H](Cc1cn(C=O)c2ccccc12)C(=O)N[C@@H](Cc1ccccc1)C(=O)N(C)Cc1ccccc1 (stereo partly drawn)
3,20,CC(O)C(NC(=O)CO)C(=O)N[C@H](Cc1cn(C=O)c2ccccc12)C(=O)N[C@@H](Cc1ccccc1)C(=O)N(C)Cc1ccccc1 (stereo partly drawn)
4,100,CC(=O)NC(Cc1c[nH]cn1)C(=O)N[C@H](Cc1cn(C=O)c2ccccc12)C(=O)N[C@@H](Cc1ccccc1)C(=O)N(C)Cc1ccccc1 (stereo partly drawn)
5,140,CN(Cc1ccccc1)C(=O)[C@H](Cc1ccccc1)NC(=O)[C@@H](Cc1cn(C=O)c2ccccc12)NC(=O)C(Cc1c[nH]cn1)NC(=O)OC(C)(C)C (stereo partly drawn)
6,200,CN(Cc1ccccc1)C(=O)[C@H](Cc1ccccc1)NC(=O)[C@@H](Cc1cn(C=O)c2ccccc12)NC(=O)C1CC(O)CN1C(=O)OC(C)(C)C (stereo partly drawn)
7,50,CC(=O)NC(CO)C(=O)N[C@H](Cc1cn(C=O)c2ccccc12)C(=O)N[C@@H](Cc1ccccc1)C(=O)N(C)Cc1ccccc1 (stereo partly drawn)
8,20,CCN(CC)CCC(=O)NC(C(=O)N[C@H](Cc1cn(C=O)c2ccccc12)C(=O)N[C@@H](Cc1ccccc1)C(=O)N(C)Cc1ccccc1)C(C)O (stereo partly drawn)

# Second part, the compound before the results:
row,Compound,IC50 [nM]
1,CC(O)C(NC(=O)N1CCOCC1)C(=O)N[C@H](Cc1cn(C=O)c2ccccc12)C(=O)N[C@@H](Cc1ccccc1)C(=O)N(C)Cc1ccccc1 (stereo partly drawn),20
2,CC(C)(C)OC(=O)N[C@@H](CCC(N)=O)C(=O)N[C@H](Cc1cn(C=O)c2ccccc12)C(=O)N[C@@H](Cc1ccccc1)C(=O)NCc1ccccc1,860
3,C[C@@H](O)[C@H](NC(=O)CN)C(=O)N[C@H](Cc1cn(C=O)c2ccccc12)C(=O)N[C@@H](Cc1ccccc1)C(=O)N(C)Cc1ccccc1,230
4,CC(=O)NC(C(=O)N[C@H](Cc1cn(C=O)c2ccccc12)C(=O)N[C@@H](Cc1ccccc1)C(=O)N(C)Cc1ccccc1)C(C)O (stereo partly drawn),5.8
5,CN(Cc1ccccc1)C(=O)[C@H](Cc1ccccc1)NC(=O)[C@@H](Cc1cn(C=O)c2ccccc12)NC(=O)CC(NC(=O)OC(C)(C)C)C(N)=O (stereo partly drawn),180
6,CN(C)C(=O)CCC(NC(=O)OC(C)(C)C)C(=O)N[C@H](Cc1cn(C=O)c2ccccc12)C(=O)N[C@@H](Cc1ccccc1)C(=O)N(C)Cc1ccccc1 (stereo partly drawn),40
7,CC(C)(C)OC(=O)N[C@@H](CCC(N)=O)C(=O)N[C@H](Cc1cn(C=O)c2ccccc12)C(=O)N[C@@H](Cc1ccccc1)C(=O)CCc1ccccc1,430
8,CN(Cc1ccccc1)C(=O)[C@H](Cc1ccccc1)NC(=O)[C@@H](Cc1cn(C=O)c2ccccc12)NC(=O)[C@H](CCC(N)=O)NC(=O)OC(C)(C)C,48
9,CC(O)C(NC(=O)OC(C)(C)C)C(=O)N[C@H](Cc1cn(C=O)c2ccccc12)C(=O)N[C@@H](Cc1ccccc1)C(=O)N(C)Cc1ccccc1 (stereo partly drawn),60
10,CC(O)C(NC(=O)CCN)C(=O)N[C@H](Cc1cn(C=O)c2ccccc12)C(=O)N[C@@H](Cc1ccccc1)C(=O)N(C)Cc1ccccc1 (stereo partly drawn),100
11,CC(O)C(N)C(=O)N[C@H](Cc1cn(C=O)c2ccccc12)C(=O)N[C@@H](Cc1ccccc1)C(=O)N(C)Cc1ccccc1 (stereo partly drawn),600
12,CC(C)(C)OC(=O)N[C@@H](CCC(N)=O)C(=O)N[C@H](Cc1cn(C=O)c2ccccc12)C(=O)N[C@@H](Cc1ccccc1)C(=O)OCc1ccccc1 (Boc-Gln-[dW](For)-Phe-OBn),90

# Species: Cavia porcellus
# Assay: Compound was tested for the inhibition of SP-induced contraction of isolated guinea pig trachea strips
# Assay type: functional
row,IC50 [nM],Compound
1,2300,CC(=O)NC(C(=O)N[C@H](Cc1cn(C=O)c2ccccc12)C(=O)N[C@@H](Cc1ccccc1)C(=O)N(C)Cc1ccccc1)C(C)O (stereo partly drawn)
